Assay results reported in patent publication US7470684B2, “Spiropiperidine derivatives as NK3 antagonists” (Hoffmann-La Roche Inc., priority 2007, dated 2008).

Biological target: T1, human NK3 receptor (Homo sapiens, UniProt P29371)
T1 construct: expressed in transfected cells; host or cells: HEK293 cells, transiently transfected; membranes
T1 sequence (P29371 1-465): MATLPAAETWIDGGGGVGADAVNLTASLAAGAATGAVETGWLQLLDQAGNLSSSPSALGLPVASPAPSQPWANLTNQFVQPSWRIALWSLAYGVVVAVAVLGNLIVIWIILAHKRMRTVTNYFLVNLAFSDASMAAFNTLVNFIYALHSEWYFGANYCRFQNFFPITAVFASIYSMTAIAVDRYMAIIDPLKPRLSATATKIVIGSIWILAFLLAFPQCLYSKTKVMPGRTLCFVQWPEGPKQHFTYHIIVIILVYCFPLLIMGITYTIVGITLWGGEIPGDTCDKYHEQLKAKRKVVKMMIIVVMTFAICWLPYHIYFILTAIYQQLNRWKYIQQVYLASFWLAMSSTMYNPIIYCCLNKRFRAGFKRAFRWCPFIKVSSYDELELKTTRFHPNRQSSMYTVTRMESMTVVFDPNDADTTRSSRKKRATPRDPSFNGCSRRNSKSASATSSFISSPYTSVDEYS
Assay: [3H]SR142801 competition binding assay
Details: not given
Description: [^3H]SR142801 Competition Binding Assay
hNK3 receptor binding experiment were performed using [^3H]SR142801 (Catalog No. TRK1035, specific activity: 74.0 Ci/mmol, Amersham, GE Healthcare UK limited, Buckinghamshire, UK) and membrane isolated from HEK293 cells transiently expressing recombinant human NK3 receptor. After thawing, the membrane homogenates were centrifuged at 48,000×g for 10 min at 4° C., the pellets were resuspended in the 50 mM Tris-HCl, 4 mM MnCl2, 1 μM phosphoramidon, 0.1% BSA binding buffer at pH 7.4 to a final assay concentration of 5 μg protein/well. For inhibition experiments, membranes were incubated with [^3H]SR142801 at a concentration equal to KD value of radioligand and 10 concentrations of the inhibitory compound (0.0003-10 μM) (in a total reaction volume of 500 μl) for 75 min at room temperature (RT). At the end of the incubation, membranes were filtered onto unitfilter (96-well white microplate with bonded GF/C filter preincubated 1 h in 0.3% PEI+0.3% BSA, Packard BioScience, Meriden, Conn.) with a Filtermate 196 harvester (Packard BioScience) and washed 4 times with ice-cold 50 mM Tris-HCl, pH 7.4 buffer. Nonspecific binding was measured in the presence of 10 μM SB222200 for both radioligands. The radioactivity on the filter was counted (5 min) on a Packard Top-count microplate scintillation counter with quenching correction after addition of 45 μl of microscint 40 (Canberra Packard S.A., Zürich, Switzerland) and shaking for 1 h. Inhibition curves were fitted according to the Hill equation: y=100/(1+(x/IC50)^nH), where nH=slope factor using Excel-fit 4 software (Microsoft). IC50 values were derived from the inhibition curve and the affinity constant (Ki) values were calculated using the Cheng-Prussoff equation Ki=IC50/(1+[L]/KD) where [L] is the concentration of radioligand and KD is its dissociation constant at the receptor, derived from the saturation isotherm. All experiments were performed in duplicate and the mean±standard error (SEM) of the individual Ki values was calculated.

Q: `CN1C(=O)OC2(CCN(CCC(C(=O)NC(c3ccc(Cl)cc3)c3nccn3C)c3ccc(Cl)c(Cl)c3)CC2)c2cc(F)ccc21` (stereo not drawn) [Example 88, N-[(4-chlorophenyl)(1-methyl-1H-imidazol-2-yl)methyl]-2-(3,4-dichlorophenyl)-4-(6-fluoro-1-methyl-2-oxo-1,2-dihydro-1′H-spiro[3,1-benzoxazine-4,4′-piperidin]-1′-yl)butanamide] was tested. Which Ki did it give?
A: The Ki was 72.2 nM.

Q: For `CN(CCc1ccccc1)C(=O)C(CCN1CCC2(CC1)OC(=O)N(C)c1ccc(F)cc12)c1ccc(Cl)c(Cl)c1` (stereo not drawn) [Example 90, 2-(3,4-dichlorophenyl)-4-(6-fluoro-1-methyl-2-oxo-1,2-dihydro-1′H-spiro[3,1-benzoxazine-4,4′-piperidin]-1′-yl)-N-metyl-N-(2-phenylethyl)butanamide], which Ki is on record?
A: Its Ki is 8 nM.

Q: Which Ki does the source give for `CN1C(=O)OC2(CCN(CCC(C(=O)NCc3ccc(-n4cccn4)cc3)c3ccc(Cl)c(Cl)c3)CC2)c2cc(F)ccc21` (stereo not drawn) [Example 94, 2-(3,4-dichlorophenyl)-4-(6-fluoro-1-methyl-2-oxo-1,2-dihydro-1′H-spiro[3,1-benzoxazine-4,4′-piperidin]-1′-yl)-N-[4-(1H-pyrazol-1-yl)benzyl]butanamide] here?
A: Its Ki is 87.7 nM.

Q: With `CN(Cc1ccc(-c2ccncc2)cc1)C(=O)C(CCN1CCC2(CC1)OC(=O)N(C)c1ccc(F)cc12)c1ccc(Cl)c(Cl)c1` (stereo not drawn) [Example 97, 2-(3,4-dichlorophenyl)-4-(6-fluoro-1-methyl-2-oxo-1,2-dihydro-1′H-spiro[3,1-benzoxazine-4,4′-piperidin]-1′-yl)-N-methyl-N-(4-pyridin-4-ylbenzyl)butanamide] as the compound, how does the Ki read?
A: The Ki was 9.4 nM.

Same assay, conditions: hNK3 Ki, [3H]SR142801 displacement, membranes of HEK293 cells transiently expressing recombinant human NK3 receptor

Q: For `O=C1Nc2ccc(F)cc2C2(CCN(CCC(C(=O)NCc3cccc(OC(F)(F)F)c3)c3ccc(Cl)c(Cl)c3)CC2)O1` (stereo not drawn) [Example 78, 2-(3,4-dichlorophenyl)-4-(6-fluoro-2-oxo-1,2-dihydro-1′H-spiro[3,1-benzoxazine-4,4′-piperidin]-1′-yl)-N-[(3-trifluoromethoxy)benzyl]butanamide], which Ki is on record?
A: The Ki was 15.4 nM.

Q: Which Ki does the source give for `CN(Cc1cccc(C(F)(F)F)c1)C(=O)C(CCN1CCC2(CC1)OC(=O)Nc1ccc(F)cc12)c1ccc(Cl)c(Cl)c1` (stereo not drawn) [Example 79, 2-(3,4-dichlorophenyl)-4-(6-fluoro-2-oxo-1,2-dihydro-1′H-spiro[3,1-benzoxazine-4,4′-piperidin]-1′-yl)-N-methyl-N-[3-(trifluoromethyl)benzyl]butanamide] here?
A: Its Ki is 6.6 nM.

Q: For `CN(Cc1ccc(F)cc1)C(=O)C(CCN1CCC2(CC1)OC(=O)Nc1ccc(F)cc12)c1ccc(Cl)c(Cl)c1` (stereo not drawn) [Example 80, 2-(3,4-dichlorophenyl)-N-(4-fluorobenzyl)-4-(6-fluoro-2-oxo-1,2-dihydro-1′H-spiro[3,1-benzoxazine-4,4′-piperidin]-1′-yl)-N-methylbutanamide], which Ki is on record?
A: Its Ki is 4.4 nM.

Q: `O=C1Nc2ccc(F)cc2C2(CCN(CCC(C(=O)NCc3ccc(F)cc3)c3ccc(Cl)c(Cl)c3)CC2)O1` (stereo not drawn) [Example 81, 2-(3,4-dichlorophenyl)-N-(4-fluorobenzyl)-4-(6-fluoro-2-oxo-1,2-dihydro-1′H-spiro[3,1-benzoxazine-4,4′-piperidin]-1′-yl)-butanamide] was tested. Which Ki did it give?
A: Its Ki is 11.6 nM.

Q: With `COc1ccc(CNC(=O)C(CCN2CCC3(CC2)OC(=O)Nc2ccc(F)cc23)c2ccc(Cl)c(Cl)c2)cc1` (stereo not drawn) [Example 82, 2-(3,4-dichlorophenyl)-4-(6-fluoro-2-oxo-1,2-dihydro-1′H-spiro[3,1-benzoxazine-4,4′-piperidin]-1′-yl)-N-(4-methoxybenzyl)butanamide] as the compound, how does the Ki read?
A: The Ki was 19.7 nM.

Q: Which Ki does the source give for `O=C1Nc2ccc(F)cc2C2(CCN(CCC(C(=O)NCc3cccc(C(F)(F)F)c3)c3ccc(Cl)c(Cl)c3)CC2)O1` (stereo not drawn) [Example 83, 2-(3,4-dichlorophenyl)-4-(6-fluoro-2-oxo-1,2-dihydro-1′H-spiro[3,1-benzoxazine-4,4′-piperidin]-1′-yl)-N-[3-(trifluoromethyl)benzyl]butanamide] here?
A: Its Ki is 12.9 nM.

Q: How did the Ki turn out when `O=C1Nc2ccc(F)cc2C2(CCN(CCC(C(=O)NCc3ccc(-c4csnn4)cc3)c3ccc(Cl)c(Cl)c3)CC2)O1` (stereo not drawn) [Example 84, 2-(3,4-dichlorophenyl)-4-(6-fluoro-2-oxo-1,2-dihydro-1′H-spiro[3,1-benzoxazine-4,4′-piperidin]-1′-yl)-N-[4-(1,2,3-thiadiazol-4-yl)benzyl]butanamide] was run?
A: The Ki was 11.6 nM.

Q: `O=C1Nc2ccc(F)cc2C2(CCN(CCC(C(=O)NCc3ccc(OC(F)(F)F)cc3)c3ccc(Cl)c(Cl)c3)CC2)O1` (stereo not drawn) [Example 85, 2-(3,4-dichlorophenyl)-4-(6-fluoro-2-oxo-1,2-dihydro-1′H-spiro[3,1-benzoxazine-4,4′-piperidin]-1′-yl)-N-[4-(trifluoromethoxy)benzyl]butanamide] was tested. Which Ki did it give?
A: Its Ki is 69.9 nM.

Q: Which Ki does the source give for `N#Cc1ccc(CNC(=O)C(CCN2CCC3(CC2)OC(=O)Nc2ccc(F)cc23)c2ccc(Cl)c(Cl)c2)cc1` (stereo not drawn) [Example 86, N-(4-cyanobenzyl)-2-(3,4-dichlorophenyl)-4-(6-fluoro-2-oxo-1,2-dihydro-1′H-spiro[3,1-benzoxazine-4,4′-piperidin]-1′-yl)butanamide] here?
A: The Ki was 12.1 nM.

Q: Which Ki does the source give for `CN1C(=O)OC2(CCN(CCC(C(=O)NCc3ccc(Cl)cc3Cl)c3ccc(Cl)c(Cl)c3)CC2)c2cc(F)ccc21` (stereo not drawn) [Example 87, N-(2,4-dichlorobenzyl)-2-(3,4-dichlorophenyl)-4-(6-fluoro-1-methyl-2-oxo-1,2-dihydro-1′H-spiro[3,1-benzoxazine-4,4′-piperidin]-1′-yl)butanamide] here?
A: Its Ki is 2.1 nM.

Q: With `CN(Cc1ccccc1)C(=O)C(CCN1CCC2(CC1)OC(=O)N(C)c1ccc(F)cc12)c1ccc(Cl)c(Cl)c1` (stereo not drawn) [Example 89, N-benzyl-2-(3,4-dichlorophenyl)-4-(6-fluoro-1-methyl-2-oxo-1,2-dihydro-1′H-spiro[3,1-benzoxazine-4,4′-piperidin]-1′-yl)-N-methyl-butanamide] as the compound, how does the Ki read?
A: The Ki was 0.8 nM.

Q: `CN1C(=O)OC2(CCN(CCC(C(=O)NCc3ccccc3OC(F)(F)F)c3ccc(Cl)c(Cl)c3)CC2)c2cc(F)ccc21` (stereo not drawn) [Example 91, 2-(3,4-dichlorophenyl)-4-(6-fluoro-1-methyl-2-oxo-1,2-dihydro-1′H-spiro[3,1-benzoxazine-4,4′-piperidin]-1′-yl)-N-[2-(trifluoromethoxy)benzyl]butanamide] was tested. Which Ki did it give?
A: The Ki was 6.5 nM.

Q: How did the Ki turn out when `CN1C(=O)OC2(CCN(CCC(C(=O)NCc3cccc(OC(F)F)c3)c3ccc(Cl)c(Cl)c3)CC2)c2cc(F)ccc21` (stereo not drawn) [Example 92, 2-(3,4-dichlorophenyl)-N-[3-(difluoromethoxy)benzyl]-4-(6-fluoro-1-methyl-2-oxo-1,2-dihydro-1′H-spiro[3,1-benzoxazine-4,4′-piperidin]-1′-yl)butanamide] was run?
A: The Ki was 2.8 nM.

Q: Which Ki does the source give for `CN(Cc1ccc(C(F)(F)F)cc1)C(=O)C(CCN1CCC2(CC1)OC(=O)N(C)c1ccc(F)cc12)c1ccc(Cl)c(Cl)c1` (stereo not drawn) [Example 93, 2-(3,4-dichlorophenyl)-4-(6-fluoro-1-methyl-2-oxo-1,2-dihydro-1′H-spiro[3,1-benzoxazine-4,4′-piperidin]-1′-yl)-N-methyl-N-[4-(trifluoromethyl)benzyl]butanamide] here?
A: Its Ki is 0.6 nM.

Q: With `CN(Cc1ccc(N2CCOCC2)cc1)C(=O)C(CCN1CCC2(CC1)OC(=O)N(C)c1ccc(F)cc12)c1ccc(Cl)c(Cl)c1` (stereo not drawn) [Example 95, 2-(3,4-dichlorophenyl)-4-(6-fluoro-1-methyl-2-oxo-1,2-dihydro-1′H-spiro[3,1-benzoxazine-4,4′-piperidin]-1′-yl)-N-methyl-N-(4-morpholin-4-ylbenzyl)butanamide] as the compound, how does the Ki read?
A: The Ki was 28.8 nM.

Q: Which Ki does the source give for `COc1ccc(CN(C)C(=O)C(CCN2CCC3(CC2)OC(=O)N(C)c2ccc(F)cc23)c2ccc(Cl)c(Cl)c2)cc1F` (stereo not drawn) [Example 99, 2-(3,4-dichlorophenyl)-N-(3-fluoro-4-methoxybenzyl)-4-(6-fluoro-1-methyl-2-oxo-1,2-dihydro-1′H-spiro[3,1-benzoxazine-4,4′-piperidin]-1′-yl)-N-methyl-butanamide] here?
A: Its Ki is 2.4 nM.

Q: Which Ki does the source give for `COc1cc(CN(C)C(=O)C(CCN2CCC3(CC2)OC(=O)N(C)c2ccc(F)cc23)c2ccc(Cl)c(Cl)c2)ccc1OC(F)F` (stereo not drawn) [Example 100, 2-(3,4-dichlorophenyl)-N-[4-(difluoromethoxy)-3-methoxybenzyl]-4-(6-fluoro-1-methyl-2-oxo-1,2-dihydro-1′H-spiro[3,1-benzoxazine-4,4′-piperidin]-1′-yl)-N-methyl-butanamide] here?
A: The Ki was 2.6 nM.
